Values quoted from earlier work, collected in US20240261419A1, “[…] PSILOCIN CONJUGATES FOR TREATMENT OF MENTAL ILLNESSES” (LONDON PHARMACEUTICALS AND RESEARCH CORPORATION, priority 2021, published 2024).
Read-outs that look alike come from different tables or passages of the source.

Details: background comparison of pharmacokinetic profiles

Structure (SMILES)	time to reach maximum plasma level (CBD)	time to reach maximum plasma level (psilocybin)
C=C(C)[C@@H]1CCC(C)=C[C@H]1c1c(O)cc(CCCCC)cc1O [CBD, cannabidiol]	4 to 6 h	
CN(C)CCc1c[nH]c2cccc(OP(=O)(O)O)c12 [psilocy bin, psilocybin]		1.5 h
